System: Microsomal or cytosolic fractions of BT20 cells
Assay: Enzyme kinetics of Compound 003 metabolism in subcellular fractions, BT20
Type: in vitro ADME, human
Procedure: 1−3×10^8 Nalm6 and BT20 cells were washed with PBS, resuspended in homogenizing buffer containing 10 mM Tris-HCl (pH 7.4) and 250 mM sucrose. Cells were sonicated and spun at 10,000×g, and the resulting supernatant was centrifuged again at 100,000×g to isolate microsomal and cytosolic fractions. The microsomal pellet was resuspended in a buffer containing 10 mM Tris-HCl (pH 7.4), 250 mM sucrose, 1 mM EDTA, and 20% glycerol. Microsomes or cytosols of Nalm6 (80 μg. and 86 μg, respectively) and BT20 cells (59 μg and 160 μg, respectively) were preincubated with or without 1 mM paraoxon in Tris-HCl buffer (pH 7.4) in a total volume of 250 μl for 10 minutes; 1. mM COMPOUND 003 was then added to the incubation mixture, and the reactions were allowed to proceed for another 30 minutes and terminated by addition of 125 μl of acetone. Protein precipitation was then removed by centrifugation; 100 μl of the supernatant was injected directly into the HPLC.
2.2.9 Enzyme Kinetics of Compound 003 Metabolism Microsomal or cytosolic fractions of Nalm6 and BT20 cells were incubated with COMPOUND 003 at various concentrations from 10 μM to 1.2 mM in similar reaction conditions as described above, except without the inhibitor. The reactions were allowed to proceed for 40 minutes. Km and Vmax in the Michaelis-Menten model were estimated by WinNonlin program (Scientific Consulting, Inc.)

With `COC(=O)C(C)NP(=O)(OCC1OC(n2cc(C)c(=O)[nH]c2=O)CC1N=[N+]=[N-])Oc1ccc(OC)cc1` (stereo not shown) [Compound 003, 3′-azidothymidine 5′-[p-methoxyphenylmethoxyalaninyl phosphate]] the Km (cytosolic fraction) was 1750 µM, the Vmax (cytosolic fraction) was 5.9 nmol/mg/min and the Km (microsomal fraction) was 460 µM. For the same molecule, the Vmax (microsomal fraction) was 0.7 nmol/mg/min.

From patent publication US20060046972A1, “Cytotoxic nucleoside analog compound 003 for treating cancer” (Parker Hughes Institute, priority 2004, published 2006)
